Laboratory results published in patent US20150313922A1, “COMPOSITIONS AND METHODS FOR THE TREATMENT OF CANCERS ASSOCIATED WITH A DEFICIENCY IN THE MRE11/RAD50/NBS1 DNA DAMAGE REPAIR COMPLEX” (SLOAN-KETTERING INSTITUTE FOR CANCER RESEARCH, priority 2012, published 2015).
Where two headings read alike, the source gives them in different places.

Experiments:
[1] = test system: cancer cells exhibiting reduced MRN complex formation and/or functionality; experiment: Growth and/or survival inhibition of cancer cells with reduced MRN complex by clastogenic agents; assay type: cell-based
[2] = test system: murine embryonic fibroblast cells that express a low level of Mre11 (Mre11-impaired; Mre11^ATLD1/ATLD1); experiment: Colony formation of Mre11-impaired vs WT murine embryonic fibroblasts exposed to DNA damaging agents; assay type: cell-based
[3] = cancer cells with reduced MRN complex formation and/or functionality, no experiment described

Row | Structure (SMILES) | sensitivity to growth and/or survival inhibition [1, 3] | also measured
1 | CCc1c2c(nc3ccc(OC(=O)N4CCC(N5CCCCC5)CC4)cc13)-c1cc3c(c(=O)n1C2)COC(=O)[C@]3(O)CC [irinotecan] | increased sensitivity | –
2 | CC(=O)[C@]1(O)Cc2c(O)c3c(c(O)c2[C@@H](O[C@H]2C[C@H](N)[C@H](O)[C@H](C)O2)C1)C(=O)c1ccccc1C3=O [idarubicin] | do not exhibit increased sensitivity | –
3 | COc1cccc2c1C(=O)c1c(O)c3c(c(O)c1C2=O)C[C@@](O)(C(=O)CO)C[C@@H]3O[C@H]1C[C@H](N)[C@@H](O)[C@H](C)O1 [epirubicin] | do not exhibit increased sensitivity | –
4 | CC[C@@]1(O)C(=O)OCc2c1cc1n(c2=O)Cc2cc3c(CN(C)C)c(O)ccc3nc2-1 [topotecan] | increased sensitivity | –
5 | O=C1c2c(O)ccc(O)c2C(=O)c2c(NCCNCCO)ccc(NCCNCCO)c21 [mitoxantrone] | do not exhibit increased sensitivity | –
6 | COc1cccc2c1C(=O)c1c(O)c3c(c(O)c1C2=O)C[C@@](O)(C(C)=O)C[C@@H]3O[C@H]1C[C@H](N)[C@H](O)[C@H](C)O1 [daunorubicin] | do not exhibit increased sensitivity | –
7 | COc1cccc2c1C(=O)c1c(O)c3c(c(O)c1C2=O)C[C@@](O)(C(=O)CO)C[C@@H]3O[C@H]1C[C@H](N)[C@H](O)[C@H](C)O1 [Adriamycin, doxorubicin] | do not exhibit increased sensitivity | susceptibility (proportion colony formation vs. concentration) of Mre11-impaired cells as compared to WT cells ([2]; Mre11^ATLD1/ATLD1 vs WT murine embryonic fibroblasts, mean of triplicate samples): equivalent response; growth and/or survival inhibition of a cell having a reduced level of MRN complex formation and/or functionality ([2]; summary statement of the description): no effect
8 | N.N.O=C([O-])C1(C(=O)[O-])CCC1.[Pt+2] [carboplatin] | increased sensitivity | –
9 | CC[C@@]1(O)C(=O)OCc2c1cc1n(c2=O)Cc2cc3ccccc3nc2-1 [campththecin, camptothecin] | increased sensitivity | –
10 | O=P1(N(CCCl)CCCl)NCCCO1 (stereo not shown) [cyclophosphamide] | – | sensitivity to growth and/or survival inhibition [1]: increased sensitivity
11 | CO[C@@]12[C@H](COC(N)=O)C3=C(C(=O)C(C)=C(N)C3=O)N1C[C@@H]1N[C@@H]12 [mitomycin C] | increased sensitivity | –
12 | N.N.[Cl][Pt][Cl] [cisplatin] | increased sensitivity | –
13 | CCCCC(=O)OCC(=O)[C@]1(O)Cc2c(O)c3c(c(O)c2[C@@H](O[C@H]2C[C@H](NC(=O)C(F)(F)F)[C@H](O)[C@H](C)O2)C1)C(=O)c1c(OC)cccc1C3=O [valrubicin] | do not exhibit increased sensitivity | –
14 | COS(C)(=O)=O [methymethanesulfate, methyl methanesulfonate] | increased sensitivity | –
